Measured values reported in PubChem BioAssay AID1963970 (Molecular Pharmacology Branch, DTP, NCI, 2024).

Tested on: 931267-113-T-J1-PDC multicell spheroid viability
Experiment: Anticancer human tumor 931267-113-T-J1-PDC patient-derived colon adenocarcinoma cell line growth inhibition [PI3K]
Conditions: for IC50: curve of first compound; for viability, T/C: stronger effect = lower value
Outline: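 Three cell types, namely tumor cells, endothelial cells and mesenchymal stem cells, formed each spheroid. Combinations with four PI3K inhibitors were screened at clinically achievable concentrations decreasing by half-log, and spheroid viability was recorded.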

[1] = second compound 0.0316 µM, first compound 0.0316 µM
[2] = second compound 0.0316 µM, first compound 0.1 µM
[3] = second compound 0.0316 µM, first compound 0.316 µM
[4] = second compound 0.0316 µM, first compound 1 µM
[5] = second compound 0.0316 µM, first compound 3.16 µM
[6] = second compound 0.0316 µM, first compound 10 µM
[7] = second compound 0.1 µM, first compound 0.0316 µM
[8] = second compound 0.1 µM, first compound 0.1 µM
[9] = second compound 0.1 µM, first compound 0.316 µM
[10] = second compound 0.1 µM, first compound 1 µM
[11] = second compound 0.1 µM, first compound 3.16 µM
[12] = second compound 0.1 µM, first compound 10 µM
[13] = second compound 0.316 µM, first compound 0.0316 µM
[14] = second compound 0.316 µM, first compound 0.1 µM
[15] = second compound 0.316 µM, first compound 0.316 µM
[16] = second compound 0.316 µM, first compound 1 µM
[17] = second compound 0.316 µM, first compound 3.16 µM
[18] = second compound 0.316 µM, first compound 10 µM
[19] = second compound 1 µM, first compound 0.0316 µM
[20] = second compound 1 µM, first compound 0.1 µM
[21] = second compound 1 µM, first compound 0.316 µM
[22] = second compound 1 µM, first compound 1 µM
[23] = second compound 1 µM, first compound 3.16 µM
[24] = second compound 1 µM, first compound 10 µM
[25] = second compound 3.16 µM, first compound 0.0316 µM
[26] = second compound 3.16 µM, first compound 0.1 µM
[27] = second compound 3.16 µM, first compound 0.316 µM
[28] = second compound 3.16 µM, first compound 1 µM
[29] = second compound 3.16 µM, first compound 3.16 µM
[30] = second compound 3.16 µM, first compound 10 µM
[31] = second compound 10 µM, first compound 0.0316 µM
[32] = second compound 10 µM, first compound 0.1 µM
[33] = second compound 10 µM, first compound 0.316 µM
[34] = second compound 10 µM, first compound 1 µM
[35] = second compound 10 µM, first compound 3.16 µM
[36] = second compound 10 µM, first compound 10 µM
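Further: viability read 7 days after compound addition.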

Work on `CC(C)NCC(C(=O)N1CCN(c2ncnc3c2C(C)CC3O)CC1)c1ccc(Cl)cc1` (stereo not drawn) + CC(Nc1ncnc2nc[nH]c12)c1cc2cccc(Cl)c2c(=O)n1-c1ccccc1 yielded an IC50 (second compound 0.0316 µM) of over 10 µM, an IC50 (second compound 0.1 µM) of over 10 µM and an IC50 (second compound 0.316 µM) of over 10 µM. For the same molecule, the IC50 (second compound 1 µM) was over 10 µM, the IC50 (second compound 3.16 µM) was over 10 µM and the IC50 (second compound 10 µM) was over 10 µM. The viability, T/C [1] was 97.2%, the viability, T/C [2] was 99.5% and the viability, T/C [3] was 92.1%. The viability, T/C [4] was 101%, the viability, T/C [5] was 97.1% and the viability, T/C [6] was 81.6%. It also gave a viability, T/C [7] of 108%, a viability, T/C [8] of 95.6% and a viability, T/C [9] of 100%. It also gave a viability, T/C [10] of 98.8%, a viability, T/C [11] of 97.1% and a viability, T/C [12] of 74.7%. For the same molecule, the viability, T/C [13] was 108%, the viability, T/C [14] was 107% and the viability, T/C [15] was 106%. It also gave a viability, T/C [16] of 94.7%, a viability, T/C [17] of 99.6% and a viability, T/C [18] of 85%. It also gave a viability, T/C [19] of 105%, a viability, T/C [20] of 107% and a viability, T/C [21] of 93%. It also gave a viability, T/C [22] of 99.6%, a viability, T/C [23] of 99.1% and a viability, T/C [24] of 80.7%. It also gave a viability, T/C [25] of 103%, a viability, T/C [26] of 100% and a viability, T/C [27] of 89.7%. It also gave a viability, T/C [28] of 94.6%, a viability, T/C [29] of 90.9% and a viability, T/C [30] of 71.7%. It also gave a viability, T/C [31] of 95.2%, a viability, T/C [32] of 86% and a viability, T/C [33] of 86.8%. It also gave a viability, T/C [34] of 87.7%, a viability, T/C [35] of 88.7% and a viability, T/C [36] of 75.1%.
With `CCN1CCN(Cc2ccc(Nc3ncc(F)c(-c4cc(F)c5nc(C)n(C(C)C)c5c4)n3)nc2)CC1` + CC(Nc1ncnc2nc[nH]c12)c1cc2cccc(Cl)c2c(=O)n1-c1ccccc1 the IC50 (second compound 0.0316 µM) was over 1 µM, the IC50 (second compound 0.1 µM) was over 1 µM and the IC50 (second compound 0.316 µM) was over 1 µM. The IC50 (second compound 1 µM) was over 1 µM, the IC50 (second compound 3.16 µM) was over 1 µM and the IC50 (second compound 10 µM) was over 1 µM. For the same molecule, the viability, T/C (second compound 0.0316 µM, first compound 0.00316 µM) was 102%, the viability, T/C (second compound 0.0316 µM, first compound 0.01 µM) was 94.6% and the viability, T/C [1] was 108%. For the same molecule, the viability, T/C [2] was 100%, the viability, T/C [3] was 104% and the viability, T/C [4] was 90.2%. For the same molecule, the viability, T/C (second compound 0.1 µM, first compound 0.00316 µM) was 101%, the viability, T/C (second compound 0.1 µM, first compound 0.01 µM) was 110% and the viability, T/C [7] was 104%. It also gave a viability, T/C [8] of 109%, a viability, T/C [9] of 100% and a viability, T/C [10] of 84.2%. The viability, T/C (second compound 0.316 µM, first compound 0.00316 µM) was 111%, the viability, T/C (second compound 0.316 µM, first compound 0.01 µM) was 107% and the viability, T/C [13] was 97.7%. It also gave a viability, T/C [14] of 98.5%, a viability, T/C [15] of 109% and a viability, T/C [16] of 98.2%. For the same molecule, the viability, T/C (second compound 1 µM, first compound 0.00316 µM) was 103%, the viability, T/C (second compound 1 µM, first compound 0.01 µM) was 101% and the viability, T/C [19] was 105%. The viability, T/C [20] was 102%, the viability, T/C [21] was 102% and the viability, T/C [22] was 86%. For the same molecule, the viability, T/C (second compound 3.16 µM, first compound 0.00316 µM) was 107%, the viability, T/C (second compound 3.16 µM, first compound 0.01 µM) was 93.4% and the viability, T/C [25] was 86.8%. The viability, T/C [26] was 95.3%, the viability, T/C [27] was 92.8% and the viability, T/C [28] was 81.2%. The viability, T/C (second compound 10 µM, first compound 0.00316 µM) was 92%, the viability, T/C (second compound 10 µM, first compound 0.01 µM) was 86.7% and the viability, T/C [31] was 89.7%. It also gave a viability, T/C [32] of 80.8%, a viability, T/C [33] of 81.9% and a viability, T/C [34] of 67.9%.
For `Cn1ncc(Cl)c1-c1cc(C(=O)NC(CN)Cc2cccc(F)c2)sc1Cl` (stereo not drawn) + CC(Nc1ncnc2nc[nH]c12)c1cc2cccc(Cl)c2c(=O)n1-c1ccccc1, the IC50 (second compound 0.0316 µM) was 6.98 µM, the IC50 (second compound 0.1 µM) was 8.83 µM and the IC50 (second compound 0.316 µM) was 6.77 µM. It also gave an IC50 (second compound 1 µM) of 8.02 µM, an IC50 (second compound 3.16 µM) of 6.2 µM and an IC50 (second compound 10 µM) of 6 µM. It also gave a viability, T/C [1] of 100%, a viability, T/C [2] of 105% and a viability, T/C [3] of 101%. It also gave a viability, T/C [4] of 86%, a viability, T/C [5] of 85.7% and a viability, T/C [6] of 35.1%. For the same molecule, the viability, T/C [7] was 106%, the viability, T/C [8] was 119% and the viability, T/C [9] was 96%. The viability, T/C [10] was 91.4%, the viability, T/C [11] was 86.8% and the viability, T/C [12] was 44.5%. The viability, T/C [13] was 114%, the viability, T/C [14] was 109% and the viability, T/C [15] was 99.3%. For the same molecule, the viability, T/C [16] was 94.5%, the viability, T/C [17] was 79% and the viability, T/C [18] was 35.7%. For the same molecule, the viability, T/C [19] was 107%, the viability, T/C [20] was 110% and the viability, T/C [21] was 92.5%. It also gave a viability, T/C [22] of 91.2%, a viability, T/C [23] of 80.6% and a viability, T/C [24] of 42.4%. It also gave a viability, T/C [25] of 99.7%, a viability, T/C [26] of 97.3% and a viability, T/C [27] of 97.8%. It also gave a viability, T/C [28] of 86.9%, a viability, T/C [29] of 74.5% and a viability, T/C [30] of 33.4%. The viability, T/C [31] was 92.9%, the viability, T/C [32] was 89.3% and the viability, T/C [33] was 90.2%. It also gave a viability, T/C [34] of 87.3%, a viability, T/C [35] of 67.3% and a viability, T/C [36] of 36.1%.
`Cn1nccc1Nc1nccc(-c2ccn(C(CO)c3ccc(Cl)c(F)c3)c(=O)c2)n1` (stereo not drawn) + CC(Nc1ncnc2nc[nH]c12)c1cc2cccc(Cl)c2c(=O)n1-c1ccccc1 showed an IC50 (second compound 0.0316 µM) of 7.95 µM, an IC50 (second compound 0.1 µM) of 7.53 µM and an IC50 (second compound 0.316 µM) of 7.72 µM. It also gave an IC50 (second compound 1 µM) of 6.96 µM, an IC50 (second compound 3.16 µM) of 5.22 µM and an IC50 (second compound 10 µM) of 3.03 µM. The viability, T/C [1] was 105%, the viability, T/C [2] was 103% and the viability, T/C [3] was 98.9%. The viability, T/C [4] was 90.6%, the viability, T/C [5] was 65.7% and the viability, T/C [6] was 46.1%. It also gave a viability, T/C [7] of 111%, a viability, T/C [8] of 109% and a viability, T/C [9] of 92.7%. For the same molecule, the viability, T/C [10] was 87.5%, the viability, T/C [11] was 64.6% and the viability, T/C [12] was 45%. For the same molecule, the viability, T/C [13] was 107%, the viability, T/C [14] was 113% and the viability, T/C [15] was 100%. It also gave a viability, T/C [16] of 78.1%, a viability, T/C [17] of 76.4% and a viability, T/C [18] of 42.7%. The viability, T/C [19] was 114%, the viability, T/C [20] was 109% and the viability, T/C [21] was 92.6%. For the same molecule, the viability, T/C [22] was 86.2%, the viability, T/C [23] was 70.3% and the viability, T/C [24] was 40.4%. It also gave a viability, T/C [25] of 109%, a viability, T/C [26] of 94.3% and a viability, T/C [27] of 87.5%. For the same molecule, the viability, T/C [28] was 78%, the viability, T/C [29] was 63.3% and the viability, T/C [30] was 35.1%. For the same molecule, the viability, T/C [31] was 88.2%, the viability, T/C [32] was 86.3% and the viability, T/C [33] was 79.6%. It also gave a viability, T/C [34] of 77.4%, a viability, T/C [35] of 48.4% and a viability, T/C [36] of 27.4%.
